Laboratory results reported in article PMC11110727, “Exploiting thiol-functionalized benzosiloxaboroles for achieving diverse substitution patterns – synthesis, characterization and biological evaluation of promising antibacterial agents” (RSC Medicinal Chemistry, 2024).
Converted amounts (≈) assume the structure as drawn.

Tests used:
E. faecalis ATCC 29212 = assay: Antibacterial activity: MIC/MBC determination and disc-diffusion; assay type: cell-based; details: Enterococcus faecalis, ATCC29212, E. faecalis ATCC 29212; for MIC: read-out: MIC
Method: (§1) Direct antimicrobial activity was determined against the following standard strains: (1) Gram-positive cocci: methicillin-sensitive Staphylococcus aureus ATCC 6538P (MSSA), methicillin-resistant S. aureus subsp. aureus ATCC 43300 (MRSA), S. epidermidis ATCC 12228, Enterococcus faecium ATCC 6057, E. faecalis ATCC 29212, Bacillus subtilis ATCC 6633; (2) Gram-negative bacteria from Enterobacteriales order: Klebsiella pneumoniae ATCC 13883, Escherichia coli ATCC 25922, Enterobacter cloacae DSM 6234, Proteus mirabilis ATCC 12453, Serratia marcescens ATCC 13880; (3) Gram-negative non-fermentative rods: Acinetobacter baumannii ATCC 19606, Pseudomonas aeruginosa ATCC 27853, Stenotrophomonas maltophilia ATCC 12714, S. maltophilia ATCC 13637, Burkholderia cepacia ATCC 25416, Bordetella bronchiseptica ATCC 4617; (4) yeasts: Candida albicans ATCC 90028, C. krusei ATCC 6258, C. parapsilosis ATCC 22019, C. tropicalis (Castellani) Berkhout ATCC 750, C. tropicalis IBA 171, C. guilliermondii IBA 155, and Saccharomyces cerevisiae ATCC 9763. Moreover, 5 clinical strains of methicillin-resistant S. aureus were also included: NMI 664 K, NMI 1576 K, NMI 1712 K, NMI 1991 K, and NMI 2541 K. All strains were stored at −80 °C. Prior to testing, each bacterial strain was subcultured twice on tryptic soy agar TSA (bioMerieux) medium and yeast strains on Sabouraud dextrose agar (bioMerieux) for 24–48 h at 30 °C to ensure viability. The antimicrobial activity was evaluated as previously described[26] by the disc-diffusion method and the MIC determination assays according to the EUCAST (ref. [71] and [72]) and CLSI (ref. [53] and [73]) recommendations. Assessment of bactericidal (MBC) and fungicidal (MFC) activities was performed according to the CLSI recommendations.[54,74] The following reference agents were used: fluconazole (in the case of fungi), linezolid (for Gram-positive bacteria), and nitrofurantoin (for Gram-negative rods). The new benzosiloxaboroles were dissolved in DMSO (Sigma).

E. faecium ATCC 6057 = assay: as above; assay type: cell-based; details: Enterococcus faecium, ATCC6057, E. faecium ATCC 6057; for MIC: read-out: MIC
Method: as §1

[1] = tested on: S. aureus ATCC 43300 MRSA; assay: as above; assay type: cell-based; details: Staphylococcus aureus, S. aureus ATCC 43300 MRSA; for MBC: read-out: MBC (first MBC where Eagle effect); for MIC: read-out: MIC
Method: as §1

[2] = tested on: S. epidermidis ATCC 12228; assay: as above; assay type: cell-based; details: Staphylococcus epidermidis, ATCC12228, S. epidermidis ATCC 12228; for MIC: read-out: MIC
Method: as §1

E. coli ATCC 25922 = assay: Antibacterial activity: MIC/MBC, MIC with PAβN, disc-diffusion; assay type: cell-based, Escherichia coli; details: E. coli ATCC 25922; for MIC: Escherichia coli, ATCC25922, read-out: MIC; for -fold reduction of MIC in the presence of PAβN: PAβN 20 μg mL^−1, MHB + 1 mM MgSO4
Method: as §1, with “The following reference agents were used: fluconazole (in the case of fungi), linezolid (for Gram-positive bacteria), and nitrofurantoin (for Gram-negative rods).” left out
(§2) Considering that the MDR efflux pumps often contribute to Gram-negative rod resistance, the MIC values of studied agents, with or without the pump inhibitor, PAβN (20 μg mL^−1) (Sigma), were determined.[75] The MIC was determined using Mueller–Hinton II broth medium (MHB) (Becton Dickinson) by the broth microdilution method, according to the CLSI guideliness.[53] To minimize the influence of PAβN on the destabilization of bacterial cell covers, the tests were conducted in the presence of 1 mM MgSO4 (Sigma).[76] At least a 4-fold reduction in the MIC value after the addition of PAβN was considered significant.[56,77]

K. pneumoniae ATCC 13883 = assay: as above; assay type: cell-based, Klebsiella pneumoniae; details: K. pneumoniae ATCC 13883; for MIC: Klebsiella pneumoniae, ATCC13883, read-out: MIC
Method: as §1, with “The following reference agents were used: fluconazole (in the case of fungi), linezolid (for Gram-positive bacteria), and nitrofurantoin (for Gram-negative rods).” left out
as §2

P. mirabilis ATCC 12453 = assay: as above; assay type: cell-based, Proteus mirabilis; details: Proteus mirabilis, ATCC12453; P. mirabilis ATCC 12453; read-out: MIC
Method: as §1, with “The following reference agents were used: fluconazole (in the case of fungi), linezolid (for Gram-positive bacteria), and nitrofurantoin (for Gram-negative rods).” left out
as §2

A. baumannii ATCC 19606 = assay: as above; assay type: cell-based, Acinetobacter baumannii; details: A. baumannii ATCC 19606; for MIC: Acinetobacter baumannii, ATCC19606, read-out: MIC
Method: as §1, with “The following reference agents were used: fluconazole (in the case of fungi), linezolid (for Gram-positive bacteria), and nitrofurantoin (for Gram-negative rods).” left out
as §2

[3] = tested on: S. maltophilia ATCC 13637; assay: as above; assay type: cell-based, Stenotrophomonas maltophilia; details: S. maltophilia ATCC 13637; for MIC: Stenotrophomonas maltophilia, ATCC13637, read-out: MIC; for -fold reduction of MIC in the presence of PAβN: PAβN 20 μg mL^−1, MHB + 1 mM MgSO4
Method: as §1, with “The following reference agents were used: fluconazole (in the case of fungi), linezolid (for Gram-positive bacteria), and nitrofurantoin (for Gram-negative rods).” left out
as §2

C. krusei ATCC 6258 = assay: Antifungal activity: MIC/MFC, disc-diffusion; assay type: cell-based; details: for diameter of inhibition zone: C. krusei ATCC 6258, (-) = zone not observed, paper discs 9 mm; for MIC: Pichia kudriavzevii, ATCC6258, read-out: MIC
Method: as §1, with “The following reference agents were used: fluconazole (in the case of fungi), linezolid (for Gram-positive bacteria), and nitrofurantoin (for Gram-negative rods).” left out

[4] = PAβN 20 μg mL^−1, MHB + 1 mM MgSO4

SMILES | MBC (E. faecalis ATCC 29212) [mg/L] | MIC (E. faecalis ATCC 29212) [mg/L] | MBC (E. faecium ATCC 6057) [mg/L] | MIC (E. faecium ATCC 6057) [mg/L] | MBC [1] [mg/L] | MIC [1] [mg/L] | MBC [2] [mg/L] | MIC [2] [mg/L] | MIC (E. coli ATCC 25922) [mg/L] | MIC (K. pneumoniae ATCC 13883) [mg/L] | MIC (P. mirabilis ATCC 12453) [mg/L] | MIC (A. baumannii ATCC 19606) [mg/L] | MIC [3] [mg/L] | diameter of inhibition zone (C. krusei ATCC 6258) [mm] | MIC (C. krusei ATCC 6258) [mg/L] | diameter of inhibition zone (E. coli ATCC 25922; (-) = zone not observed, paper discs 9 mm) [mm] | -fold reduction of MIC in the presence of PAβN (E. coli ATCC 25922) | -fold reduction of MIC in the presence of PAβN (K. pneumoniae ATCC 13883; [4]) | -fold reduction of MIC in the presence of PAβN (A. baumannii ATCC 19606; [4]) | -fold reduction of MIC in the presence of PAβN [3]
C[Si]1(C)OB(O)c2cc(F)c(S)c(F)c21 [Compound 1e, 5,7-Difluoro-6-mercapto-1,1-dimethylbenzo[c][1,2,5]oxasilaborol-3(1H)-ol] | 100 (≈ 406 µM) | 12.5 (≈ 50.8 µM) | 400 (≈ 1630 µM) | 12.5 (≈ 50.8 µM) | 25 (≈ 102 µM) | 12.5 (≈ 50.8 µM) | 50 (≈ 203 µM) | 1.56 (≈ 6.34 µM) | > 400 | > 400 | > 400 | > 400 | > 400 | 13 | 400 (≈ 1630 µM) | – | – | – | – | –
C[Si]1(C)OB(O)c2ccc(S)c(F)c21 [Compound 2e, 7-Fluoro-6-mercapto-1,1-dimethylbenzo[c][1,2,5]oxasilaborol-3(1H)-ol] | – | 12.5 (≈ 54.8 µM) | – | 12.5 (≈ 54.8 µM) | 25 (≈ 110 µM) | 12.5 (≈ 54.8 µM) | 25 (≈ 110 µM) | 6.25 (≈ 27.4 µM) | > 100 | > 100 | > 100 | > 100 | > 100 | – | > 100 | – | – | – | – | –
CC(=O)CCSc1c(F)cc2c(c1F)[Si](C)(C)OB2O [Compound 3, 4-((5,7-Difluoro-3-hydroxy-1,1-dimethyl-1,3-dihydrobenzo[c][1,2,5]oxasilaborol-6-yl)thio)butan-2-one] | 200 (≈ 632 µM) | 25 (≈ 79.1 µM) | 200 (≈ 632 µM) | 12.5 (≈ 39.5 µM) | 200 (≈ 632 µM) | 50 (≈ 158 µM) | 200 (≈ 632 µM) | 25 (≈ 79.1 µM) | > 400 | > 400 | > 400 | > 400 | 400 (≈ 1260 µM) | – | 200 (≈ 632 µM) | – | – | – | – | –
COC(=O)CCSc1ccc2c(c1F)[Si](C)(C)OB2O [Compound 4, Methyl 3-((7-fluoro-3-hydroxy-1,1-dimethyl-1,3-dihydrobenzo[c][1,2,5]oxasilaborol-6-yl)thio)propanoate] | – | 200 (≈ 636 µM) | – | 100 (≈ 318 µM) | – | 12.5 (≈ 39.8 µM) | – | 25 (≈ 79.6 µM) | 400 (≈ 1270 µM) | > 400 | > 400 | > 400 | > 400 | 12 | 200 (≈ 636 µM) | 15 | 8 -fold | 8 -fold | 2 -fold | 2 -fold
C[Si]1(C)OB(O)c2cc(F)c(SCCC(=O)ON3C(=O)CCC3=O)c(F)c21 [Compound 5, 2,5-Dioxopyrrolidin-1-yl 3-((5,7-difluoro-3-hydroxy-1,1-dimethyl-1,3-dihydrobenzo-[c][1,2,5]oxasilaborol-6-yl)thio)propanoate] | – | 400 (≈ 963 µM) | – | 400 (≈ 963 µM) | – | 400 (≈ 963 µM) | – | 400 (≈ 963 µM) | > 400 | > 400 | > 400 | > 400 | > 400 | – | > 400 | – | – | – | – | –
C[Si]1(C)OB(O)c2cc(F)c(SCCC#N)c(F)c21 [Compound 6, 3-((5,7-Difluoro-3-hydroxy-1,1-dimethyl-1,3-dihydrobenzo[c][1,2,5]oxasilaborol-6-yl)thio)propanenitrile] | – | 400 (≈ 1340 µM) | – | 400 (≈ 1340 µM) | > 400 | 12.5 (≈ 41.8 µM) | – | 50 (≈ 167 µM) | > 400 | > 400 | > 400 | > 400 | > 400 | – | > 400 | – | 2 -fold | – | – | 2 -fold
C[Si]1(C)OB(O)c2cc(F)c(SCCC(N)=O)c(F)c21 [Compound 7, 3-((5,7-Difluoro-3-hydroxy-1,1-dimethyl-1,3-dihydrobenzo[c][1,2,5]oxasilaborol-6-yl)thio)propanamide] | – | 400 (≈ 1260 µM) | – | 200 (≈ 631 µM) | – | 100 (≈ 315 µM) | – | 100 (≈ 315 µM) | > 400 | > 400 | > 400 | > 400 | > 400 | – | > 400 | – | 4 -fold | – | – | –
C[Si]1(C)OB(O)c2cc(F)c(SCCC(=O)N3CCOCC3)c(F)c21 [Compound 8, 3-((5,7-Difluoro-3-hydroxy-1,1-dimethyl-1,3-dihydrobenzo[c][1,2,5]oxasilaborol-6-yl)thio)-1-morpholinopropan-1-one] | – | 400 (≈ 1030 µM) | – | 200 (≈ 516 µM) | – | 50 (≈ 129 µM) | – | 100 (≈ 258 µM) | > 400 | > 400 | > 400 | > 400 | > 400 | – | > 400 | – | – | – | – | –
C[Si]1(C)OB(O)c2cc(F)c(S(=O)(=O)N3CCOCC3)c(F)c21 [Compound 29, 5,7-Difluoro-1,1-dimethyl-6-(morpholinosulfonyl)benzo[c][1,2,5]oxasilaborol-3(1H)-ol] | – | > 400 | – | 400 (≈ 1100 µM) | – | 400 (≈ 1100 µM) | – | 400 (≈ 1100 µM) | > 400 | > 400 | > 400 | > 400 | > 400 | – | – | – | 2 -fold | – | – | –
